Assay results from US20220395472A1 (Dermavant Sciences GmbH, priority 2021, published 2022).

Test system: adults with plaque psoriasis
Test: Long-term open-label extension study (PSOARING 3): Physician Global Assessment (PGA), treatment episodes, treatment success, remittive effect
Format: in vivo, human
Procedure: This extension study consisted of up to 40 weeks of treatment and a 4 week, safety follow up period.
At the completion of the Week 12 visit of the DB, pivotal Phase 3 study, eligibility of the subjects opting to enroll in this extension study was confirmed. Study visits during the treatment period for all subjects occurred every 4 weeks (±3 days). A phone call was performed at Week 2 (Day 15). Unscheduled visits may have occurred, as needed. Subjects who withdrew from this study before Week 40 returned to the study center for an Early Termination visit. The total duration of this extension study participation was 44 weeks. Subjects in this study were treated as follows based on their PGA score from the Week 12 visit in the DB, pivotal Phase 3 study (Study DMVT 505 3001 or Study DMVT 505 3002).
The PGA was used to assess the primary efficacy endpoint in this study. The PGA is a clinical tool for assessing the current state/severity of a subject's psoriasis at a given time point. It is a static, 5 point, morphological assessment of overall disease severity, as determined by the Investigator, using the clinical characteristics of erythema, scaling, and plaque thickness/elevation as guidelines; higher PGA scores represent more severe disease (0=clear, 1=almost clear, 2=mild, 3=moderate, and 4=severe). The BSA affected was not considered in scoring of the PGA. Variations of the PGA are frequently used in clinical studies because it is a simple assessment, similar to those used in clinical practice. The PGA was performed first, prior to the % BSA, PASI, and LTS assessments.
Time to event parameters, such as the time from treatment success to subsequent worsening (PGA≥2) or duration of treatment episode, were summarized by the Kaplan Meier product limit method using OC.

[1] = Week 40, LOCF, Tapinarof (Pivotal) group
[2] = Week 40, OC, Vehicle (Pivotal) group
[3] = Week 40 LOCF, Tapinarof (Pivotal)
[4] = Week 40 LOCF, Vehicle (Pivotal)
[5] = Week 40 OC, Tapinarof (Pivotal)

For `CC(C)c1c(O)cc(/C=C/c2ccccc2)cc1O` [Tapinarof, 3,5-Dihydroxy-4-isopropyl-trans-stilbene], the “PGA Change from Baseline: Improved by 4” value (Week 16 OC, Vehicle (Pivotal)) was 1 (0.5) n (%), the “PGA Change from Baseline: No Change” value (Week 16 OC, Vehicle (Pivotal)) was 59 (28.2) n (%) and the “PGA Change from Baseline: Worsened by 1” value (Week 16 OC, Vehicle (Pivotal)) was 6 (2.9) n (%). The “PGA Change from Baseline: Worsened by 2” value (Week 16 OC, Vehicle (Pivotal)) was 2 (1.0) n (%), the “PGA Change from Baseline: Worsened by 3” value (Week 16 OC, Vehicle (Pivotal)) was 0 (0.0) n (%) and the “PGA Change from Baseline: Worsened by 4” value (Week 16 OC, Vehicle (Pivotal)) was 0 (0.0) n (%). For the same molecule, the “Subjects with PGA=0” value [1] was 15.4%, the “Subjects with PGA=1” value [1] was 30.0% and the “Subjects with PGA=1” value (Week 40, LOCF, Vehicle (Pivotal) group) was 27.4%. For the same molecule, the “Subjects with PGA=1” value (Week 40, OC, Tapinarof (Pivotal) group) was 30.1%, the “Subjects with PGA=0” value [2] was 23.9% and the “Subjects with PGA=1” value [2] was 31.9%. For the same molecule, the “PGA 0 - Clear” value (Week 40 LOCF, Overall) was 118 (15.8) n (%), the “PGA 1 - Almost Clear” value (Week 40 LOCF, Overall) was 217 (29.1) n (%) and the “PGA 2 - Mild” value (Week 40 LOCF, Overall) was 253 (34.0) n (%). The “PGA 3 - Moderate” value (Week 40 LOCF, Overall) was 146 (19.6) n (%), the “PGA 4 - Severe” value (Week 40 LOCF, Overall) was 11 (1.5) n (%) and the “PGA Change from Baseline: Improved by 1” value (Week 40 LOCF, Overall) was 194 (26.1) n (%). The “PGA Change from Baseline: Improved by 2” value (Week 40 LOCF, Overall) was 88 (11.9) n (%), the “PGA Change from Baseline: Improved by 3” value (Week 40 LOCF, Overall) was 27 (3.6) n (%) and the “PGA Change from Baseline: Improved by 4” value (Week 40 LOCF, Overall) was 2 (0.3) n (%). The “PGA Change from Baseline: No Change” value (Week 40 LOCF, Overall) was 282 (38.0) n (%), the “PGA Change from Baseline: Worsened by 2” value (Week 40 LOCF, Overall) was 37 (5.0) n (%) and the “PGA Change from Baseline: Worsened by 3” value (Week 40 LOCF, Overall) was 4 (0.5) n (%). For the same molecule, the “PGA Change from Baseline: Worsened by 4” value (Week 40 LOCF, Overall) was 0 (0.0) n (%), the “PGA 0 - Clear” value [3] was 76 (15.4) n (%) and the “PGA 1 - Almost Clear” value [3] was 148 (30.0) n (%). For the same molecule, the “PGA 2 - Mild” value [3] was 171 (34.7) n (%), the “PGA 3 - Moderate” value [3] was 91 (18.5) n (%) and the “PGA 4 - Severe” value [3] was 7 (1.4) n (%). For the same molecule, the “PGA Change from Baseline: Improved by 1” value [3] was 110 (22.4) n (%), the “PGA Change from Baseline: Improved by 2” value [3] was 31 (6.3) n (%) and the “PGA Change from Baseline: Improved by 3” value [3] was 5 (1.0) n (%). The “PGA Change from Baseline: Improved by 4” value [3] was 1 (0.2) n (%), the “PGA Change from Baseline: No Change” value [3] was 211 (43.0) n (%) and the “PGA Change from Baseline: Worsened by 1” value [3] was 95 (19.3) n (%). The “PGA Change from Baseline: Worsened by 2” value [3] was 34 (6.9) n (%), the “PGA Change from Baseline: Worsened by 3” value [3] was 4 (0.8) n (%) and the “PGA Change from Baseline: Worsened by 4” value [3] was 0 (0.0) n (%). The “PGA 0 - Clear” value [4] was 42 (16.7) n (%), the “PGA 1 - Almost Clear” value [4] was 69 (27.4) n (%) and the “PGA 2 - Mild” value [4] was 82 (32.5) n (%). The “PGA 3 - Moderate” value [4] was 55 (21.8) n (%), the “PGA 4 - Severe” value [4] was 4 (1.6) n (%) and the “PGA Change from Baseline: Improved by 1” value [4] was 84 (33.5) n (%). For the same molecule, the “PGA Change from Baseline: Improved by 2” value [4] was 57 (22.7) n (%), the “PGA Change from Baseline: Improved by 3” value [4] was 22 (8.8) n (%) and the “PGA Change from Baseline: Improved by 4” value [4] was 1 (0.4) n (%). For the same molecule, the “PGA Change from Baseline: No Change” value [4] was 71 (28.3) n (%), the “PGA Change from Baseline: Worsened by 1” value [4] was 13 (5.2) n (%) and the “PGA Change from Baseline: Worsened by 2” value [4] was 3 (1.2) n (%). For the same molecule, the “PGA Change from Baseline: Worsened by 3” value [4] was 0 (0.0) n (%), the “PGA Change from Baseline: Worsened by 4” value [4] was 0 (0.0) n (%) and the “PGA 0 - Clear” value (Week 40 OC, Overall) was 68 (19.5) n (%). For the same molecule, the “PGA 1 - Almost Clear” value (Week 40 OC, Overall) was 107 (30.7) n (%), the “PGA 2 - Mild” value (Week 40 OC, Overall) was 116 (33.2) n (%) and the “PGA 3 - Moderate” value (Week 40 OC, Overall) was 57 (16.3) n (%). For the same molecule, the “PGA 4 - Severe” value (Week 40 OC, Overall) was 1 (0.3) n (%), the “PGA Change from Baseline: Improved by 1” value (Week 40 OC, Overall) was 99 (28.4) n (%) and the “PGA Change from Baseline: Improved by 2” value (Week 40 OC, Overall) was 46 (13.2) n (%). For the same molecule, the “PGA Change from Baseline: Improved by 3” value (Week 40 OC, Overall) was 19 (5.4) n (%), the “PGA Change from Baseline: Improved by 4” value (Week 40 OC, Overall) was 1 (0.3) n (%) and the “PGA Change from Baseline: No Change” value (Week 40 OC, Overall) was 105 (30.1) n (%). For the same molecule, the “PGA Change from Baseline: Worsened by 1” value (Week 40 OC, Overall) was 55 (15.8) n (%), the “PGA Change from Baseline: Worsened by 2” value (Week 40 OC, Overall) was 21 (6.0) n (%) and the “PGA Change from Baseline: Worsened by 3” value (Week 40 OC, Overall) was 3 (0.9) n (%). The “PGA Change from Baseline: Worsened by 4” value (Week 40 OC, Overall) was 0 (0.0) n (%), the “PGA 0 - Clear” value [5] was 41 (17.4) n (%) and the “PGA 1 - Almost Clear” value [5] was 71 (30.1) n (%). For the same molecule, the “PGA 2 - Mild” value [5] was 81 (34.3) n (%), the “PGA 3 - Moderate” value [5] was 42 (17.8) n (%) and the “PGA 4 - Severe” value [5] was 1 (0.4) n (%). The “PGA Change from Baseline: Improved by 1” value [5] was 58 (24.6) n (%), the “PGA Change from Baseline: Improved by 2” value [5] was 19 (8.1) n (%) and the “PGA Change from Baseline: Improved by 3” value [5] was 2 (0.8) n (%). The “PGA Change from Baseline: Improved by 4” value [5] was 0 (0.0) n (%), the “PGA Change from Baseline: No Change” value [5] was 86 (36.4) n (%) and the “PGA Change from Baseline: Worsened by 1” value [5] was 48 (20.3) n (%). For the same molecule, the “PGA Change from Baseline: Worsened by 2” value [5] was 20 (8.5) n (%), the “PGA Change from Baseline: Worsened by 3” value [5] was 3 (1.3) n (%) and the “PGA Change from Baseline: Worsened by 4” value [5] was 0 (0.0) n (%). For the same molecule, the “PGA 0 - Clear” value (Week 40 OC, Vehicle (Pivotal)) was 27 (23.9) n (%) and the “PGA 1 - Almost Clear” value (Week 40 OC, Vehicle (Pivotal)) was 36 (31.9) n (%).
